Our source for the Kd values is article PMC8648042, “IMB-XMA0038, a new inhibitor targeting aspartate-semialdehyde dehydrogenase of Mycobacterium tuberculosis” (Emerging Microbes & Infections, 2021).

For orientation: pKd means the negative decadic logarithm of the Kd, by convention in mol/L. Low readings indicate a high Kd, high ones a low Kd.

This assay concerns the target T1, Aspartate-semialdehyde dehydrogenase (MtASADH) (Mycobacterium tuberculosis, UniProt P9WNX5).
T1 construct: gene asd
Kind of assay: SPR with MtASADH immobilized on CM5 chip; also IC50 […] in LysC-coupled NADPH enzyme assay. It counts as binding.

Molecules are shown by their SMILES. pKd: −log10 of the molar value.

T1 sequence (P9WNX5 whole entry, looked up): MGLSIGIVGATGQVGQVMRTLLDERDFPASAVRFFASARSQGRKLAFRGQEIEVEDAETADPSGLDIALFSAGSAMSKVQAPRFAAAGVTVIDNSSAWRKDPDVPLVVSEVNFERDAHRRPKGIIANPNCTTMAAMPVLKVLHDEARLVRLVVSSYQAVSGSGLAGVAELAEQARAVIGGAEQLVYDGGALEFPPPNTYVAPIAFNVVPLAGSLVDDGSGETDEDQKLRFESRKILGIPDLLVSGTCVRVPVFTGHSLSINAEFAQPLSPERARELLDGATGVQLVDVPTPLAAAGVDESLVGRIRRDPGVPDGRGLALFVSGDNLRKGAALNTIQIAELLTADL

Compound `O=C(Nc1nnc(C2CCCO2)o1)c1ccc([N+](=O)[O-])o1` (stereo not shown) [IMB-XMA0038, 5-nitro-N-(5-(tetrahydrofuran-2-yl)-1,3,4-oxadiazol-2-yl)furan-2-carboxamide] gave a negative logarithm of the Kd (pKd) of 3.44.
